{"source": "patent US20120190707A1", "about": "“SELECTIVE INHIBITORS OF AKT AND METHODS OF USING SAME” (priority 2008, published 2012)", "key": {"NRAS/Ink4a mice": {"system": "NRAS/Ink4a mice", "assay": "Melanoma development in NRAS/Ink4a mice", "assay_type": "in vivo", "description": "The NRAS/Ink4a mice harbor a Q61K NRAS activating mutation, as is seen in 15% of human melanomas, on an Ink4a-deficient background, which mimics the mutations often seen in this locus (p16) in human melanoma.\nThe NRAS/Ink4a mouse develops melanoma with penetrance of about 25-50% which is often accompanied by metastasis to the lymph nodes.\nTo examine the effect of BI-69A11 treatment on in vivo melanoma development, BI-69A11 was administered to a cohort of 30 mice twice per week (IP, 0.5 mg/kg), starting at week 28 after NRAS expression. A control group of 30 mice received the control vehicle formulation. In this model, by 28 weeks many mice already developed melanoma. Those were not included in our study which was restricted to animals that have not yet developed melanoma. Nevertheless, in a clinical setting, preventive treatment could be administered prior to tumor development, at a stage where early stages of development had been initiated.\nNRAS expression was induced in NRAS/INK4a mice (time 0) and the mice were maintained for 40 weeks. Starting at 28 weeks, animals received BI-69A11 at 0.5 mg/kg by IP injection twice weekly.\nNRAS expression was induced in NRAS/INK4a mice and 28 weeks later treatment with BI-69A11 was initiated. Internal tumors developed in this model were fibrosarcomas, whereas the skin tumors were melanomas (confirmed by immunostaining with S100 and DCT).\nAn additional experimental group included animals from the same melanoma model, albeit, those were treated earlier (after 10 weeks rather than 28)."}, "[1]": {"system": "AKT association with HSP90", "assay": "AKT association with HSP90, immunoprecipitation from melanoma cells", "assay_type": "cell-based, human", "conditions": "10.micro.M, 4 h", "description": "(§1) FIG. 6 describes the effect of BI-69A11 on phosphorylation and total levels of AKT in UACC 903 (PTEN−) cells. (A) UACC903 and the modified clone 29-1 (PTEN+) cells were exposed to 10 micro.M BI-69A11 and 50 micro.M LY294002 (a PI3K inhibitor) and the levels of pAKT473 and total AKT determined by western analysis. […] (SF=Serum Free). (B) BI-69A11 inhibits PRAS40 phosphorylation. UACC903 melanoma cells or 29-1 cells (PTEN+) were subjected to treatment with IGF-1 (20 ng/mL) and the level of PRAS40 phosphorylation was assessed. […] The cells were collected, lysed and levels of pPRAS40 and total PRAS40 determined by western analysis. (C) AKT association with HSP90 is inhibited by BI-69A11. Human melanoma cells were treated with BI-69A11 (10.micro.M) or DMSO control for 4 h, followed by protein preparation and immunoprecipitation using antibodies to pan-AKT. MG132 treatment, when used, initiated 1 h prior to treatment and lasted up to the preparation of proteins (total of 5 h). The right panel depicts analysis of total lysates.\nAmong cellular proteins implicated in the regulation of AKT levels is the cellular chaperone HSP90. […] Thus we assessed whether association of AKT with HSP90 could be affected by BI-69A11. […]"}, "MCF7 cells": {"system": "MCF7 cells", "assay": "Cell death by trypan blue staining, MCF7", "assay_type": "cell-based", "conditions": "5 micro.M, 4 hours", "description": "(A) MeWo melanoma cells growing in 60 mm plates were treated with the indicated concentration of the inhibitor for 4 h before proteins were prepared for western blot analysis using the indicated antibodies. Level of beta.actin was monitored as a control for protein loading. (B) Experiment was performed as indicated in panel A, except that cells were harvested after 24 h for analysis of cell death using trypan blue staining. (C) Melanoma (MeWo), prostate cancer (PC3) and breast cancer (MCF7) cells were treated with BI-69A11 at the indicated concentrations; levels of AKT phosphorylation or expression were assessed 4 h later. The level of beta.actin used as a control for protein loading. (D) Experiment was performed as indicated in panel C, except that cells were harvested after 4 h for analysis of cell death using trypan blue staining.\nFor the proliferation assays, cells were treated as described above. However, instead of scraping cells into the serum-free medium, floating cells were collected in a 15 mL centrifuge tube whereas adherent cells trypsinized gently. The total cell population was pooled and counted on a hemocytometer after staining with Trypan Blue."}, "melanocytes": {"system": "melanocytes", "assay": "AKT phosphorylation and toxicity in cultured melanocytes", "assay_type": "cell-based", "conditions": "data not shown"}, "PRAS40": {"system": "PRAS40", "assay": "PRAS40 phosphorylation by western analysis in UACC903 cells", "assay_type": "cell-based, human", "conditions": "UACC903, 10.micro.M", "description": "as §1\nThus, we set to test the possibility that BI-69A11's ability to inhibit AKT activity may stem from inhibition of AKT protein expression (see data below). We thus assessed whether inhibition of AKT Ser473 phosphorylation coincides with its activity, namely the phosphorylation of known AKT substrates. […]"}, "[2]": {"conditions": "IP 0.5 mg/kg twice per week from week 28"}}}
{"compound": "O=C(/C=C/c1nc2ccccc2[nH]1)c1c(O)nc2ccc(Cl)cc2c1-c1ccccc1", "note": "[Compound 2, (E)-3-(3-(1H-benzo[d]imidazol-2-yl)acryloyl)-6-chloro-4-phenylquinolin-2(1H)-one]", "values": [{"measurement": "inhibition in the fibrosarcoma group", "setting": "NRAS/Ink4a mice; [2]", "result": "~50", "unit": "%"}, {"measurement": "inhibition of melanomas", "setting": "NRAS/Ink4a mice; [2]", "result": "~68", "unit": "%"}, {"measurement": "share of the 25 melanomas that developed in the treated group", "setting": "NRAS/Ink4a mice; [2]", "result": 32, "unit": "%"}, {"measurement": "total number of tumors developed", "setting": "NRAS/Ink4a mice; IP 0.5 mg/kg twice per week from week 28, up to 40 weeks, 30 tumors in control group", "result": 19}, {"measurement": "number of melanomas", "setting": "NRAS/Ink4a mice; IP 0.5 mg/kg twice per week from week 28, control 17", "result": 8}, {"measurement": "prevention with administration after 10 weeks compared with after 28 weeks", "setting": "NRAS/Ink4a mice; mouse, in vivo", "result": "as effective as"}, {"measurement": "AKT association with HSP90", "setting": "[1]", "result": "abolished"}, {"measurement": "viability of MCF7 cells", "setting": "MCF7 cells", "result": "did not affect"}, {"measurement": "AKT phosphorylation in growth factor-maintained melanocytes", "setting": "melanocytes; coincided with cell death", "result": "efficient inhibition of AKT phosphorylation"}, {"measurement": "toxic effect on melanocytes deprived of growth factors", "setting": "melanocytes; deprived for 24 h", "result": "no longer elicit toxic effect"}, {"measurement": "phosphorylation of PRAS40", "setting": "PRAS40", "result": "markedly inhibited"}]}
